Structures can show the parent of a compound that is named as a salt. Where two headings read alike, the source gives them in different places.
Columns and labels:
[1] = target: T1, S1P1 (Homo sapiens, UniProt P21453); assay: S1P1 internalization assay in S1P1-U2OS cells (S1P1-EGFP), cell imaging; assay type: cell-based; design: host or cells: U2OS (human bone osteosarcoma epithelial cells), CMV promoter, geneticin selection; conditions: 1 hour incubation
Description: Cellular functional assays: Internalization of Sphingosine-1-phosphate receptor 1 (S1P1) in a human Cell line (U2OS) in a 384-well format using a Cell Imaging analysis. • Jo, E.; Sanna, M. G.; Gonzalez-Cabrera, P. J.; Thangada, S.; Tigyi, S.; Osborne, D. A.; Hla, T.; Parrill, A. L.; Rosen, H. Chem. Biol. 2005, 12, 703
The S1P1 internalization assay was performed in 384 well plates (Corning® 384 black with clear bottom 3712) using S1P1-U2OS cells from Biolmage (C039A), a human epithelial cell line (Human Bone Osteosarcoma Epithelial Cells). These cells expressed the human S1P1 Receptor fused to the green fluorescent protein (EGFP). A standard CMV promoter (cytomegalovirus promoter) controls the expression of S1P1-EGFP and continuous expression was maintained by addition of geneticin to the culture medium.
S1P1 Receptor desensitization induced the internalization of the membrane-localized S1P1-EGFP fusion protein to endosomes, which can be monitored by cell imaging analysis. The cells are plated in low serum medium (Dulbecco's Modified Eagle Medium (DMEM) with Glutamax-1 and high glucose, 1% Penicillin/Streptomycin, 1% Fetal Calf Serum (FCS), 0.5 mg/ml Geneticin) overnight.
The next day, S1P1-U2OS cells are incubated in 20 μl serum free medium (DMEM with Glutamax-1 and high glucose, 0.1% of fatty-acid free Bovin Serum Albumin (BSA), 10 mM, N′-2-Hydroxyethylpiperazine-N′-2 ethanesulphonic acid (HEPES) 1M) for 2 hours at 37° C./5% CO2. The cells are then treated with 4 μl compounds/agonists (6×/3% DMSO) for a total volume of 24 μl, and plates are incubated for 1 hour at 37° C./5% CO2.
S1P1-U2OS cells are fixed with 25 μl Paraformaldehyde 8% and stained with Hoechst 33345 dye (1:1000) for 20 minutes.
They were then washed 3 times with Phosphate Buffered Saline (PBS) and plates are sealed. The internalization of the receptor S1P1-EGFP is measured on Cellomics by calculating the “spot count per object” (“object” corresponds to nuclear and “spot” corresponds to S1P1-EGFP receptor). Internalization data were observed thanks to vHCS View and analyzed using Genedata® software.
Target sequence in this assay (P21453 whole entry): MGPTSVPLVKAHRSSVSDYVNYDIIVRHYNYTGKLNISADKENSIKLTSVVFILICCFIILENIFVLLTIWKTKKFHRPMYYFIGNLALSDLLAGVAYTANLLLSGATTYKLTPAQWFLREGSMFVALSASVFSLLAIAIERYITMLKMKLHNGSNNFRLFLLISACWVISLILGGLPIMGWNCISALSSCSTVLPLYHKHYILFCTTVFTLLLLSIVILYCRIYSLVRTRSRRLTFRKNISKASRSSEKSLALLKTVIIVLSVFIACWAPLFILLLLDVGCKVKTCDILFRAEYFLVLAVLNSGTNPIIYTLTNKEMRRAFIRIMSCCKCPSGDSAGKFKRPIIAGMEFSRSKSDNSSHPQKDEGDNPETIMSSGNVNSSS

[2] = target: S1P3 (Homo sapiens, UniProt Q99500); assay: Receptor binding assay, [33P]sphingosine 1-phosphate competition, S1P3 membranes, WGA SPA beads
S1P3, sequence (Q99500 whole entry, species assumed): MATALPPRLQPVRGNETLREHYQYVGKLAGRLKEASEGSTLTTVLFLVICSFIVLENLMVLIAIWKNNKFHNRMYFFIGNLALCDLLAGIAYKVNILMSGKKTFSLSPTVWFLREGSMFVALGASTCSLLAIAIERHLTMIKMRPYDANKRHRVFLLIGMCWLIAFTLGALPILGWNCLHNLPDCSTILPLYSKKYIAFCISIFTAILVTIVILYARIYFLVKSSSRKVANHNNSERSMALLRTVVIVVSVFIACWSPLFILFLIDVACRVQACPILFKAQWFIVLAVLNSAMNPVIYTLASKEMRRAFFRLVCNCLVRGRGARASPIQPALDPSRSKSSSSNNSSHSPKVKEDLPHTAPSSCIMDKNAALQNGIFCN
Description: (§1) Membranes were prepared from CHO cells expressing S1P1 or S1P3 for use in ligand and […] binding studies. Cells were suspended in 50 mM TRIS, pH 7.4, 2 mM EDTA, 250 mM Sucrose (buffer A) and 1× Complete protease inhibitor cocktail (Roche), and disrupted at 4° C. by N2 decompression using a cell disruption bomb (Parr Instrument). Following centrifugation at 1000 RPM for 10 min at 4° C., the supernatant was diluted (2×) in buffer A and centrifuged again at 19000 RPM for 75 min at 4° C. The pellet was then suspended in 10 mM HEPES, pH 7.4, 1 mM EDTA, 250 mM Sucrose (Buffer B), and 1× Complete EDTA-free protease inhibitor cocktail and homogenized using a potter. Membranes were flash frozen in liquid N2 and stored at −80° C.
(§2) Receptor binding assay: [33P]sphingosine 1-phosphate (3000 Ci/mmol; American Radiolabeled Chemicals, Inc.) was added to test compounds in 20% DMSO by competition. Membranes and WGA SPA beads (GE Healthcare) were added to give a final volume of 100 μl in 96-well plates or 50 μl in 384-well plates with assay concentrations of […] [33P]sphingosine 1-phosphate (respectively for S1P1 or S1P3), 50 mM HEPES, pH 7.5, 5 mM MgCl2, 100 mM NaCl, 0.4% fatty acid-free BSA, 1-5 μg/well of proteins in 96-well plates vs 0.6-1 μg/well of proteins in 384-well plates and 100 μg/well of WGA SPA beads in 96-well plates vs 75 μg/well of WGA SPA beads in 384-well plates. Binding was performed for 60 min at RT on a shaker and bound radioactivity was measured on a PerkinElmer 1450 MicroBeta counter. Triplicate samples were averaged and normalized as percentage of inhibition relative to total binding (only DMSO in well) and nonspecific binding (1000-fold excess of unlabeled S1P). Binding data were analyzed using the GraphPad Prism program or Genedata software.

[3] = target: T1, S1P1; assay: Receptor binding assay, [33P]sphingosine 1-phosphate competition, S1P1 membranes, WGA SPA beads
Description: as §1, §2
Target sequence in this assay (P21453 whole entry, species assumed): as the sequence (P21453 whole entry) above

[4] = 384 well-plate, read-out: S1P3 binding Ki (M) (384 well-plate)
[5] = 96 well-plate, read-out: S1P1 binding Ki (M) (96 well-plate)
[6] = 384 well-plate, read-out: S1P1 binding Ki (M) (384 well-plate)
[7] = 96 well-plate, read-out: S1P3 binding Ki (M) (96 well-plate)

Structure (SMILES): COCc1cc(-c2nc(-c3cccc(CN(CC(=O)O)CC(C)C)c3)no2)ccc1-c1ccccc1C [Example 59, N-isobutyl-N-(3-{5-[2-(methoxymethyl)-2′-methylbiphenyl-4-yl]-1,2,4-oxadiazol-3-yl}benzyl)glycine, hydrochloride salt]
- EC50 [1]: 74.5 nM
- Ki [2, 4]: 8.49e-07 M
- Ki [3, 5]: 1.1e-09 M
- Ki [3, 6]: 7.94e-09 M

Structure (SMILES): COCc1cc(-c2nc(-c3ccc(CN(C)CC(=O)O)cc3)no2)ccc1-c1ccccc1C [Example 51, N-(4-{5-[2-(methoxymethyl)-2′-methylbiphenyl-4-yl]-1,2,4-oxadiazol-3-yl}benzyl)-N-methylglycine, hydrochloride salt]
- EC50 [1]: 4.92 nM
- Ki [2, 7]: 7.32e-07 M
- Ki [2, 4]: 9.17e-07 M
- Ki [3, 5]: 3.38e-10 M
- Ki [3, 6]: 2.1e-09 M

Structure (SMILES): COCc1cc(-c2nc(-c3ccc(CN(C)CC(=O)O)cc3Cl)no2)ccc1-c1ccccc1C [Example 144, 2-((4-(5-(2-(methoxymethyl)-2′-methylbiphenyl-4-yl)-1,2,4-oxadiazol-3-yl)-3-chlorobenzyl)(methyl)amino)acetic acid]
- EC50 [1]: 25.7 nM
- Ki [2, 4]: 3.55e-07 M
- Ki [3, 6]: 1.73e-09 M

Structure (SMILES): COCc1cc(-c2nc(-c3ccc(CN(C)CC(=O)O)cc3)no2)ccc1-c1ccccc1Cl [Example 118, N-(4-{5-[2′-chloro-2-(methoxymethyl)biphenyl-4-yl]-1,2,4-oxadiazol-3-yl}benzyl)-N-methylglycine, hydrochloride salt]
- EC50 [1]: 9.94 nM
- Ki [2, 4]: 5.67e-07 M
- Ki [3, 6]: 1.1e-09 M

Structure (SMILES): COCc1cc(-c2nc(-c3ccc(CN(C)CCC(=O)O)cc3)no2)ccc1-c1ccccc1C [Example 74, N-(4-{5-[2-(methoxymethyl)-2′-methylbiphenyl-4-yl]-1,2,4-oxadiazol-3-yl}benzyl)-N-methyl-beta-alanine, hydrochloride salt]
- EC50 [1]: 1.46 nM
- Ki [2, 7]: 1.08e-07 M
- Ki [3, 5]: 2.01e-10 M

Structure (SMILES): COCc1cc(-c2nc(-c3cc(F)c(CNCC(=O)O)c(F)c3)no2)ccc1-c1ccccc1C [Example 147, 2-(2,6-difluoro-4-(5-(2-(methoxymethyl)-2′-methylbiphenyl-4-yl)-1,2,4-oxadiazol-3-yl)benzylamino)acetic acid, hydrochloride salt]
- EC50 [1]: 1.54 nM
- Ki [2, 4]: 1.35e-07 M
- Ki [3, 6]: 6.95e-10 M

Structure (SMILES): COCc1cc(-c2nc(-c3cc(CN(C)CC(=O)O)cc(F)c3F)no2)ccc1-c1ccccc1C [Example 126, N-(3,4-difluoro-5-{5-[2-(methoxymethyl)-2′-methylbiphenyl-4-yl]-1,2,4-oxadiazol-3-yl}benzyl)-N-methylglycine, hydrochloride salt]
- EC50 [1]: 47 nM
- Ki [2, 4]: 6.55e-07 M
- Ki [3, 6]: 2.88e-09 M

Structure (SMILES): COCc1cc(-c2nc(-c3ccc(CN(C)CC(=O)O)c(F)c3)no2)ccc1-c1ccccc1Cl [Example 119, N-(4-{5-[2′-chloro-2-(methoxymethyl)biphenyl-4-yl]-1,2,4-oxadiazol-3-yl}-2-fluorobenzyl)-N-methylglycine, hydrochloride salt]
- EC50 [1]: 11.5 nM
- Ki [2, 4]: 3.83e-07 M
- Ki [3, 6]: 9.55e-10 M

Structure (SMILES): COCc1cc(-c2nc(-c3ccc(CN(C)CC(=O)O)c(Cl)c3)no2)ccc1-c1ccccc1C [Example 128, 2-((4-(5-(2-(methoxymethyl)-2′-methylbiphenyl-4-yl)-1,2,4-oxadiazol-3-yl)-2-chlorobenzyl)(methyl)amino)acetic acid]
- EC50 [1]: 13.3 nM
- Ki [2, 4]: 5.66e-07 M
- Ki [3, 6]: 1.45e-09 M

Structure (SMILES): COCc1cc(-c2nc(-c3ccc(CN(C)CC(=O)O)cc3)no2)ccc1-c1cccc(F)c1C [Example 90, N-(4-{5-[3′-fluoro-2-(methoxymethyl)-2′-methylbiphenyl-4-yl]-1,2,4-oxadiazol-3-yl}benzyl)-N-methylglycine, hydrochloride salt]
- EC50 [1]: 4.46 nM
- Ki [2, 7]: 5.45e-07 M
- Ki [2, 4]: 8.49e-07 M
- Ki [3, 5]: 2.78e-10 M
- Ki [3, 6]: 8.65e-10 M

Structure (SMILES): COCc1cc(-c2nc(-c3ccc(CN(C)CC(=O)O)c(F)c3)no2)ccc1-c1cccc(F)c1Cl [Example 121, N-(4-{5-[2′-chloro-3′-fluoro-2-(methoxymethyl)biphenyl-4-yl]-1,2,4-oxadiazol-3-yl}-2-fluorobenzyl)-N-methylglycine, hydrochloride salt]
- EC50 [1]: 6.56 nM
- Ki [2, 4]: 5.26e-07 M
- Ki [3, 6]: 1.54e-09 M

Structure (SMILES): COCc1cc(-c2nc(-c3cccc(CN(C)CC(=O)O)c3)no2)ccc1-c1ccc(F)cc1C [Example 36, N-(3-{5-[4′-fluoro-2-(methoxymethyl)-2′-methylbiphenyl-4-yl]-1,2,4-oxadiazol-3-yl}benzyl)-N-methylglycine, hydrochloride salt]
- EC50 [1]: 14.8 nM
- Ki [2, 4]: 2.71e-07 M
- Ki [3, 5]: 5.59e-10 M
- Ki [3, 6]: 1.97e-09 M

Structure (SMILES): COCc1cc(-c2nc(-c3ccc(CNCC(=O)O)cc3C)no2)ccc1-c1ccccc1C [Example 106, 2-(4-(5-(2-(methoxymethyl)-2′-methylbiphenyl-4-yl)-1,2,4-oxadiazol-3-yl)-3-methylbenzylamino)acetic acid]
- EC50 [1]: 4.12 nM
- Ki [2, 7]: 1.59e-07 M
- Ki [2, 4]: 2.96e-07 M
- Ki [3, 6]: 4.66e-10 M

Structure (SMILES): COCc1cc(-c2nc(-c3cccc(CN(C)CC(=O)O)c3)no2)ccc1-c1ccc(F)c(F)c1C [Example 42, N-(3-{5-[3′,4′-difluoro-2-(methoxymethyl)-2′-methylbiphenyl-4-yl]-1,2,4-oxadiazol-3-yl}benzyl)-N-methylglycine, hydrochloride salt]
- EC50 [1]: 18.3 nM
- Ki [2, 4]: 2.75e-07 M
- Ki [3, 5]: 1.82e-10 M
- Ki [3, 6]: 1.7e-09 M

Structure (SMILES): COCc1cc(-c2nc(-c3cccc(CC(=O)N(C)CC(=O)O)c3)no2)ccc1-c1ccccc1C [Example 44, N-[(3-{5-[2-(methoxymethyl)-2′-methylbiphenyl-4-yl]-1,2,4-oxadiazol-3-yl}phenyl)acetyl]-N-methylglycine]
- EC50 [1]: 115 nM
- Ki [2, 4]: 1.31e-07 M
- Ki [3, 5]: 1.71e-09 M
- Ki [3, 6]: 1.02e-08 M

Structure (SMILES): COCc1cc(-c2nc(-c3cccc(CN(C)CC(=O)O)c3)no2)ccc1-c1cc(F)ccc1C [Example 37, N-(3-{5-[5′-fluoro-2-(methoxymethyl)-2′-methylbiphenyl-4-yl]-1,2,4-oxadiazol-3-yl}benzyl)-N-methylglycine, hydrochloride salt]
- EC50 [1]: 6.56 nM
- Ki [2, 7]: 6.34e-08 M
- Ki [3, 5]: 3.33e-10 M

Structure (SMILES): COc1cc(-c2noc(-c3ccc(N4CCCCC4C)c(C(F)(F)F)c3)n2)ccc1CN(C)CC(=O)O (centres unmarked) [Example 80, 2-((2-methoxy-4-(5-(4-(2-methylpiperidin-1-yl)-3-(trifluoromethyl)phenyl)-1,2,4-oxadiazol-3-yl)benzyl)(methyl)amino)acetic acid, hydrochloride salt]
- EC50 [1]: 47 nM
- Ki [2, 7]: 2.79e-06 M
- Ki [3, 5]: 1.6e-09 M
- Ki [3, 6]: 3.12e-09 M

Structure (SMILES): Cc1ccccc1-c1ccc(-c2nc(-c3ccc(CN(C)CC(=O)O)cc3)no2)cc1C [Example 130, N-{4-[5-(2,2′-dimethylbiphenyl-4-yl)-1,2,4-oxadiazol-3-yl]benzyl}-N-methylglycine, hydrochloride salt]
- EC50 [1]: 23.3 nM
- Ki [2, 4]: 5.38e-06 M
- Ki [3, 5]: 8.34e-10 M
- Ki [3, 6]: 2.53e-09 M

Source: US8815919B2, “Oxadiazole derivatives” (Merck Serono SA, priority 2009, dated 2014)
